Measured values taken from patent US20100140166A1, “PROCESS FOR FERMENTIVE PREPARATION OF ALCOHOLS AND RECOVERY OF PRODUCT” (E.I. DU PONT DE NEMOURS AND COMPANY, priority 2008, published 2010).

Experiments:
[1] = Extraction of ethanol from an aqueous solution by ionic liquid (HPLC); type: physicochemical; conditions: 3 mL aqueous solution about 31 g/L ethanol, 5 vol % ionic liquid, overnight equilibration, control 655
Procedure: (§1) Ethanol and isobutanol concentration in the solution was measured using HPLC as described above following thorough mixing and overnight equilibration of the contents of the vial.

[2] = Extraction of isobutanol from an aqueous solution by ionic liquid (HPLC); type: physicochemical; conditions: 3 mL aqueous solution about 31 g/L isobutanol, 5 vol % ionic liquid, overnight equilibration, control 436
Procedure: as §1

[3] = system: Saccharomyces cerevisiae (W1362 20A); experiment: Glucose Uptake Index (GUI) of Saccharomyces cerevisiae culture in the presence of ionic liquid; type: cell-based; conditions: 5% (v/v) ionic liquid, YPD medium, 30° C., 16 hours after addition; GUI of control without ionic liquid 79.0 (Ex. 1-5) or 100 (Ex. 6-8)

Compound | mM Ethanol (in solution after equilibration) ([1]; listed as [MeDMEEAP] [Tf2N]) [mM] | mM isobutanol (in solution after equilibration) ([2]; listed as [MeDMEEAP] [Tf2N]) [mM] | GUI of Sample (Glucose Utilization Index in the presence of ionic liquid phase) [3] | mM Ethanol (in solution after equilibration) ([1]; listed as [MeDMEEAP] [HFPS]) [mM] | mM isobutanol (in solution after equilibration) ([2]; listed as [MeDMEEAP] [HFPS]) [mM] | mM isobutanol (in solution after equilibration) [2] [mM] | mM Ethanol (in solution after equilibration) [1] [mM]
CCOCC[N+](C)(C)CCN1C(=O)CCC1C (stereo not shown) [Example 3, 1-(N,N,N-dimethyl(ethylethoxy)aminoethyl)-5-methyl-pyrrolidine-2-one bis(trifluoromethane)sulfonamide] | 637 | 398 | 80.4 | – | – | – | –
CCOCC[N+](C)(C)CCN1C(=O)CCC1C (stereo not shown) [Example 2, 1-(N,N,N-dimethyl(ethylethoxy)aminoethyl)-5-methyl-pyrrolidine-2-one hexafluoropropanesulfonate] | – | – | 34.0 | 656 | 422 | – | –
CC1CCC(=O)N1CC[N+](C)(C)CCO.O=S(=O)([N-]S(=O)(=O)C(F)(F)F)C(F)(F)F (stereo not shown) [Example 8, 1-(N,N,N-dimethyl(hydroxyethyl)aminoethyl)-5-methyl pyrrolidone-2-one bis(trifluoromethane)sulfonamide] | – | – | 89.3 | – | – | 417 | –
CCC[N+](C)(C)CCN1C(=O)CCC1C.O=S(=O)([N-]S(=O)(=O)C(F)(F)F)C(F)(F)F (stereo not shown) [Example 6, 1-(N,N,N-dimethylpropylaminoethyl)-5-methyl pyrrolidone-2-one bis(trifluoromethane)sulfonamide] | – | – | 100 | – | – | 387 | –
COCC[N+](C)(C)CCN1C(=O)CCC1C (stereo not shown) [Example 4, 1-(N,N,N-dimethyl(methylethoxy)aminoethyl)-5-methylpyrrolidin-2-one hexafluoropropanesulfonate] | – | – | 21.9 | – | – | 423 | 645
COCC[N+](C)(C)CCN1C(=O)CCC1C.O=S(=O)([N-]S(=O)(=O)C(F)(F)F)C(F)(F)F (stereo not shown) [Example 7, 1-(N,N,N-dimethyl(methylethoxy)aminoethyl)-5-methyl pyrrolidone-2-one bis(trifluoromethane)sulfonamide] | – | – | 100 | – | – | 389 | 643
